We go through 32 compounds from article PMC7587356, “High-Throughput Screening for Inhibitors of the SARS-CoV-2 Protease Using a FRET-Biosensor” (Molecules, 2020).

Structures are written as SMILES. Structures can show the parent of a compound that is named as a salt. Where two headings read alike, the source gives them in different places.

The target of this assay is SARS-CoV-2 3CLpro (Severe acute respiratory syndrome coronavirus 2, UniProt P0DTD1). Nature of the assay: biochemical. It counts as biochemical. More on the design: Replicate_1 / Replicate_2 / mean / mean (LOPAC_screen_w_protease): unit not given here. Conditions: for inhibition at 5 µM: 4 h.
Where [1] appears, read: sheet LOPAC_screen_w_protease, LOPAC1280 at 5 µM, mean of two replicates.
[2] abbreviates: sheet LOPAC_screen_w_protease, LOPAC1280 at 5 µM, replicate 1.
Where [3] appears, read: sheet LOPAC_screen_w_protease, LOPAC1280 at 5 µM, replicate 2.
Setting [4] is: sheet LOPAC_screen_w_protease, primary screen with protease, 5 µM, mean of two replicates.
[5] abbreviates: sheet LOPAC_screen_w_protease, primary screen with protease, 5 µM, replicate 1.
[6] abbreviates: sheet LOPAC_screen_w_protease, primary screen with protease, 5 µM, replicate 2.
The mark [7] stands for this setting: sheet LOPAC_screen_w_protease, LOPAC1280 primary screen at 5 µM, with protease, mean of the two replicates.
The mark [8] stands for this setting: sheet LOPAC_screen_w_protease, LOPAC1280 primary screen at 5 µM, with protease, replicate 1.
Where [9] appears, read: sheet LOPAC_screen_w_protease, LOPAC1280 primary screen at 5 µM, with protease, replicate 2.
Where [10] appears, read: LOPAC1280 primary screen with protease, 5 µM compound, replicate 1, read-out: Replicate_1 (LOPAC_screen_w_protease).
Setting [11] is: LOPAC1280 primary screen with protease, 5 µM compound, replicate 2, read-out: Replicate_2 (LOPAC_screen_w_protease).
[12] abbreviates: LOPAC1280 primary screen with protease, 5 µM compound, mean of two replicates.
Where [13] appears, read: sheet LOPAC_screen_w_protease, primary screen with protease, mean of two replicates.
The mark [14] stands for this setting: sheet LOPAC_screen_w_protease, primary screen with protease, replicate 1.
The mark [15] stands for this setting: sheet LOPAC_screen_w_protease, primary screen with protease, replicate 2.
Where [16] appears, read: LOPAC1280 primary screen with protease, 5 µM compound, mean of the two replicates.
Where [17] appears, read: sheet LOPAC_screen_w_protease, primary screen of LOPAC1280 at 5 µM with protease, mean of the two replicates.
[18] abbreviates: sheet LOPAC_screen_w_protease, primary screen of LOPAC1280 at 5 µM with protease, replicate 1.
Setting [19] is: sheet LOPAC_screen_w_protease, primary screen of LOPAC1280 at 5 µM with protease, replicate 2.
[20] abbreviates: LOPAC1280 primary screen with protease, 5 µM compound, replicate 1.
The mark [21] stands for this setting: LOPAC1280 primary screen with protease, 5 µM compound, replicate 2.
[22] abbreviates: sheet LOPAC_screen_w_protease, primary screen with protease, mean of two replicates, read-out: mean.
[23] abbreviates: sheet LOPAC_screen_w_protease, primary screen with protease, replicate 1, read-out: Replicate_1.
[24] abbreviates: sheet LOPAC_screen_w_protease, primary screen with protease, replicate 2, read-out: Replicate_2.

`COc1ccccc1N1CCN(CCN(C(=O)c2ccc(F)cc2)c2ccccn2)CC1.Cl.Cl` [p-MPPF dihydrochloride]: the “mean (LOPAC screen with protease)” value (sheet LOPAC_screen_w_protease, primary screen at 5 µM, mean of two replicates) came out at 7.242. For the same compound, the “Replicate_1 (LOPAC screen with protease)” value (sheet LOPAC_screen_w_protease, primary screen at 5 µM, replicate 1) is on record as 5.881. Moreover, the “Replicate_2 (LOPAC screen with protease)” value (sheet LOPAC_screen_w_protease, primary screen at 5 µM, replicate 2) stood at 8.603.

`CCN(CC)C(=O)c1ccc(O)c(OC)c1` [Vanillic acid diethylamide] showed a mean under setting [1] of 0.9703. This compound returned a Replicate_1 under setting [2] of 1.198. For the same compound, under setting [3], the Replicate_2 came to 0.7424.

With `CN(C)c1ccc(/C=C2\C(=O)Nc3ccccc32)cc1` [SU 4312], under setting [4], the mean is 0.09243. For the same compound, the Replicate_1 under setting [5] came to 0.4934. The compound further yielded a Replicate_2 under setting [6] of -0.3085.

`Cl.O=C(O)Cc1c[nH]cn1` [Imidazole-4-acetic acid hydrochloride] came in with a mean under setting [7] of 0.8241. Also, the Replicate_1 under setting [8] was determined as 2.255. Further, the Replicate_2 under setting [9] was -0.6064.

For the compound `O=C(O)c1ccccc1Nc1cccc(OCc2ccc3ccccc3n2)c1` [SR 2640], the inhibition at 5 µM under setting [10] was found to be 1.95% and the inhibition at 5 µM under setting [11] came to 1.04%. Moreover, the “mean (LOPAC_screen_w_protease)” value under setting [12] is on record as 1.4964.

On to `O=c1c2ccccc2[nH]c(=S)n1CCN1CCC(=C(c2ccc(F)cc2)c2ccc(F)cc2)CC1` [Diacylglycerol Kinase Inhibitor II], for which the inhibition at 5 µM by setting is: (sheet LOPAC_screen_w_protease, LOPAC1280 primary screen at 5 µM, with protease, mean of two replicates, read-out: mean) -3.62%; (sheet LOPAC_screen_w_protease, LOPAC1280 primary screen at 5 µM, with protease, replicate 1, read-out: Replicate_1) -4.63%; (sheet LOPAC_screen_w_protease, LOPAC1280 primary screen at 5 µM, with protease, replicate 2, read-out: Replicate_2) -2.61%.

With `OC(CCN1CCCCC1)(c1ccccc1)C1CCCCC1` (centres unmarked) [Trihexyphenidyl hydrochloride], the inhibition at 5 µM reads like this: (read-out: Replicate_1 (LOPAC_screen_w_protease)) 1.61%; (read-out: Replicate_2 (LOPAC_screen_w_protease)) 1.86%.

For the compound `CN1[C@@H]2CC[C@H]1C[C@@H](OC(c1ccccc1)c1ccccc1N)C2` (some centres unmarked) [Aminobenztropine], the inhibition at 5 µM (sheet LOPAC_screen_w_protease, primary screen with protease, compound at 5 µM, mean of two replicates, read-out: mean) was determined as 3.04%; the inhibition at 5 µM (sheet LOPAC_screen_w_protease, primary screen with protease, compound at 5 µM, replicate 1, read-out: Replicate_1) came to 2.54%; the inhibition at 5 µM (sheet LOPAC_screen_w_protease, primary screen with protease, compound at 5 µM, replicate 2, read-out: Replicate_2) worked out at 3.53%.

`CN1CCC(c2c[nH]c3ccc(O)cc23)CC1.O=C(O)/C=C\C(=O)O` [BRL 54443 maleate] came in with a mean under setting [13] of 2.426. Under setting [14], this compound displayed a Replicate_1 of 0.4828. For the same compound, the Replicate_2 under setting [15] was 4.37.

For `CN[C@@H]1C[C@@H](c2ccc(Cl)c(Cl)c2)c2ccccc21` [Indatraline hydrochloride], the inhibition at 5 µM reads like this: under setting [10], 1.51%; under setting [11], 2.53%. In addition, under setting [16], the “mean (LOPAC_screen_w_protease)” value was found to be 2.022.

Compound `C[C@H](Cc1ccccc1)Nc1ncnc2c1ncn2[C@@H]1O[C@H](CO)[C@@H](O)[C@H]1O` [R(-)-N6-(2-Phenylisopropyl)adenosine] gave a mean under setting [7] of 0.4967. For the same compound, the Replicate_1 under setting [8] is 2.165. Also, the Replicate_2 under setting [9] was -1.171.

In turn, `O=C([O-])c1cc2cc(Cc3cccnc3)ccc2o1.[Na+]` [Furegrelate sodium] had a mean under setting [17] of 4.074. Moreover, under setting [18], the Replicate_1 is on record as 5.241. Also, the Replicate_2 under setting [19] was determined as 2.907.

Regarding `Cc1[nH]c(=O)c(C#N)cc1-c1ccncc1` [Milrinone], the inhibition at 5 µM by setting is: (sheet LOPAC_screen_w_protease, LOPAC1280 primary screen with protease, 5 µM compound, mean of the two replicates, read-out: mean) 4.26%; (sheet LOPAC_screen_w_protease, LOPAC1280 primary screen with protease, 5 µM compound, replicate 1, read-out: Replicate_1) 3.12%; (sheet LOPAC_screen_w_protease, LOPAC1280 primary screen with protease, 5 µM compound, replicate 2, read-out: Replicate_2) 5.4%.

`c1ccc(C2CC2)c(OCC2=NCCN2)c1` [Cirazoline hydrochloride]: the inhibition at 5 µM runs as follows: under setting [10], 2.66%; under setting [11], 1%. Moreover, the “mean (LOPAC_screen_w_protease)” value under setting [16] worked out at 1.832.

With `C/C(=C\c1ccc(C(=O)O)cc1)c1ccc2c(c1)C(C)(C)CCC2(C)C` [TTNPB], under setting [17], the mean is recorded as 3.657. Moreover, the Replicate_1 under setting [18] worked out at 5.544. Besides, the Replicate_2 under setting [19] is 1.7694.

`O=S(=O)(O)C1CCNCC1` [Piperidine-4-sulphonic acid]: the mean (sheet LOPAC_screen_w_protease, LOPAC1280 primary screen with protease, 5 µM compound, mean of the two replicates) turned out to be 4.585. Besides, for the setting “sheet LOPAC_screen_w_protease, LOPAC1280 primary screen with protease, 5 µM compound, replicate 1”, the Replicate_1 is recorded as 5.428. Where the note is “sheet LOPAC_screen_w_protease, LOPAC1280 primary screen with protease, 5 µM compound, replicate 2”, the Replicate_2 stood at 3.743.

Regarding `CNCC(O)c1ccc(O)cc1` (racemic) [(±)-Synephrine], the “mean (LOPAC_screen_w_protease)” value under setting [12] came out at 1.431. The “Replicate_1 (LOPAC_screen_w_protease)” value under setting [20] is given as 1.098. Besides, the “Replicate_2 (LOPAC_screen_w_protease)” value under setting [21] is 1.765.

`CCc1c(C(=O)OC)ncc2[nH]c3cc(OC)c(OC)cc3c12`: under setting [16], the “mean (LOPAC_screen_w_protease)” value was found to be 2.118. Moreover, the “Replicate_1 (LOPAC_screen_w_protease)” value under setting [20] amounted to 4.217. Also, the “Replicate_2 (LOPAC_screen_w_protease)” value under setting [21] amounted to 0.01945.

Turning to `O=C(O)[C@H]1C[C@H](C(=O)O)N1` (relative stereo) [trans-Azetidine-2,4-dicarboxylic acid], the “mean (LOPAC_screen_w_protease)” value under setting [16] stood at 2.097. In addition, the “Replicate_1 (LOPAC_screen_w_protease)” value under setting [20] turned out to be 1.338. The “Replicate_2 (LOPAC_screen_w_protease)” value under setting [21] was found to be 2.855.

Under setting [1], `NC(N)=NOCC[C@H](N)C(=O)O.O=S(=O)(O)O` [L-Canavanine sulfate] came in with a mean of 1.293. Besides, under setting [2], the Replicate_1 was 1.623. The compound also displayed a Replicate_2 under setting [3] of 0.9625.

Regarding `Cl.NCC(O)c1ccc(O)cc1` (racemic) [(±)-Octopamine hydrochloride], the mean under setting [17] is reported as 4.023. In addition, the Replicate_1 under setting [18] was found to be 4.835. For the same compound, the Replicate_2 under setting [19] is reported as 3.21.

Consider `CCNC(=O)[C@H]1O[C@@H](n2cnc3c(N)ncnc32)[C@H](O)[C@@H]1O` [5'-N-Ethylcarboxamidoadenosine], for which the “mean (LOPAC_screen_w_protease)” value under setting [16] was found to be 1.81. Moreover, the “Replicate_1 (LOPAC_screen_w_protease)” value under setting [20] amounted to 1.565. Moreover, the “Replicate_2 (LOPAC_screen_w_protease)” value under setting [21] is given as 2.055.

For `CCCC(C(=O)OCCN(CC)CC)(c1ccccc1)c1ccccc1.Cl` [SKF-525A hydrochloride], under setting [17], the mean was found to be 3.89. Further, the Replicate_1 under setting [18] is on record as 3.162. The compound further registered a Replicate_2 under setting [19] of 4.618.

As to `O=C1NCC2(CCN(CCc3ccccc3)CC2)O1` [Fenspiride hydrochloride], the inhibition at 5 µM was 2.48% under setting [22], 4.11% under setting [23] and 0.843% under setting [24].

The compound `N#C/C(=C\c1ccc(O)c(O)c1)C(=O)NCCCc1ccccc1` [Tyrphostin AG 555] had a mean under setting [17] of 3.848. The compound further yielded a Replicate_1 under setting [18] of 4.708. The compound also registered a Replicate_2 under setting [19] of 2.988.

On to `N.N.N.N.N.N.N.N.N.N.N.N.N.N.[Cl-].[Cl-].[Cl-].[Cl-].[Cl-].[Cl-].[O-2].[O-2].[Ru+3].[Ru+3].[Ru+4]` [Ruthenium red], for which the “mean (LOPAC_screen_w_protease)” value under setting [16] is reported as 1.824. Further, the “Replicate_1 (LOPAC_screen_w_protease)” value under setting [20] worked out at 2.607. In addition, the “Replicate_2 (LOPAC_screen_w_protease)” value under setting [21] turned out to be 1.042.

`C#CC(N)CCC(=O)O` (centres unmarked) [gamma-Acetylinic GABA] gave a mean under setting [13] of 2.242. Under setting [14], the Replicate_1 is listed as 2.252. In addition, under setting [15], the Replicate_2 was found to be 2.232.

Consider `COC(=O)c1c(C)[nH]c(C)c1C(=O)c1ccccc1Cc1ccccc1` [FPL 64176], for which the mean under setting [4] is recorded as 0.1984. Besides, the Replicate_1 under setting [5] is recorded as 1.679. The Replicate_2 under setting [6] was -1.282.

Consider `O=c1onc2n1-c1cc(Br)ccc1OC2` [NS 2028], for which the Replicate_1 was 5.339, the Replicate_2 came to 3.612 and the mean is given as 4.476.

Regarding `CN1CCc2cc(Cl)c(O)cc2[C@@H](c2ccccc2)C1.Cl` [R(+)-SCH-23390 hydrochloride], the mean under setting [17] was determined as 3.494. Further, the Replicate_1 under setting [18] is reported as 4.714. Under setting [19], the Replicate_2 amounted to 2.274.

As for `CC(=O)C(C)=NO` [2,3-Butanedione monoxime], under setting [12], the “mean (LOPAC_screen_w_protease)” value is recorded as 1.644. For the same compound, under setting [20], the “Replicate_1 (LOPAC_screen_w_protease)” value was 1.791. In addition, the “Replicate_2 (LOPAC_screen_w_protease)” value under setting [21] is listed as 1.497.

Consider `Cc1c2ccncc2c(C)c2c1[nH]c1ccccc12` [Ellipticine], for which the inhibition at 5 µM reads like this: under setting [22], 2.32%; under setting [23], 4.78%; under setting [24], -0.147%.
